14 molecules from ChEMBL document CHEMBL1141905, “3,4-disubstituted azetidinones as selective inhibitors of the cysteine protease cathepsin K. Exploring P3 elements for potency and selectivity” (Bioorg Med Chem Lett, 2005) can be followed below.

The target of data set [1] is T1, Cathepsin K (Oryctolagus cuniculus) (UniProt P43236).
T1 sequence (whole entry): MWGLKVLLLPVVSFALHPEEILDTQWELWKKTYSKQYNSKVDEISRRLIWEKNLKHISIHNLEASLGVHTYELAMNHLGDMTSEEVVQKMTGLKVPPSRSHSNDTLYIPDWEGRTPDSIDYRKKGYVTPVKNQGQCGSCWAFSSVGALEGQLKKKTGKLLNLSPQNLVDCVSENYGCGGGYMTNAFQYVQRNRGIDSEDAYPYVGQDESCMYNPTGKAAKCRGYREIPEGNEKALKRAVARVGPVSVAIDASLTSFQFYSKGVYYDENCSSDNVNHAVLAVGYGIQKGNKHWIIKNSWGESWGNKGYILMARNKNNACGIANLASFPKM
Put plainly: Apparent inhibitory constant against rabbit cathepsin K.

Data set [2] addresses Cathepsin B (Homo sapiens) (UniProt P07858). Put plainly: Apparent inhibitory constant against human cathepsin B.
The target in data set [3] is Procathepsin L (Homo sapiens) (UniProt P07711).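 Note: apparent inhibition constant, determined on the human enzyme.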
Sequence of Procathepsin L (Homo sapiens) (P07711 114-333 limits assumed): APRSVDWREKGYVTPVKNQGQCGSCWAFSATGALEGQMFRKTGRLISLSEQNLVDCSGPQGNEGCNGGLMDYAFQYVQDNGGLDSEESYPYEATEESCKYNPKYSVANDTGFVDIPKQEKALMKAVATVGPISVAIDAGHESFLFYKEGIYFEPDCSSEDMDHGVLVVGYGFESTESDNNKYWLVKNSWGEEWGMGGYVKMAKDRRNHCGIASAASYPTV
The target of data set [4] is Cathepsin S (Homo sapiens) (UniProt P25774). Description: Apparent inhibitory constant against human cathepsin S.
Sequence of Cathepsin S (Homo sapiens) (P25774 115-331 limits assumed): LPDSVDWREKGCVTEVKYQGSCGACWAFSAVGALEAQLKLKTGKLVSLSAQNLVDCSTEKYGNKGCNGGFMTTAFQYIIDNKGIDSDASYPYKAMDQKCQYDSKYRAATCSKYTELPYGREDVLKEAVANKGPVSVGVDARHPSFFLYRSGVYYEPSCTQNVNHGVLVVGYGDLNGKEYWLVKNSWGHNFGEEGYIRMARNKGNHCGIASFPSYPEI
The nature of data set [5]: Volume of distribution following intravenous administration evaluated as moderate. Type of data set: ADME, organism-based. As to conditions: in vivo.
Data set [6] in a line: Clearance following intravenous administration evaluated as high. Type of data set: ADME, organism-based. As to conditions: in vivo.
Data set [7] is described as follows: Alpha half life period. Type of data set: ADME.
A short description of data set [8]: Beta half life period. Type of data set: ADME.
Data set [9] in a line: Mean residence time by intravenous administration. Type of data set: ADME, organism-based. As to conditions: in vivo.

On to `CC(=O)O[C@@H]1NC(=O)[C@H]1NC(=O)C1(NC(=O)c2ccc(-c3csc(CN4CCOCC4)n3)cc2)CCCCC1`, for which the Ki'' came to 7.5 nM in data set [1], 1700 nM in [2], 11000 nM in data set [3] and 12000 nM in data set [4].
On to `CC(=O)O[C@@H]1NC(=O)[C@H]1NC(=O)C1(NC(=O)c2ccc(N3CCN(C)CC3)cc2)CCCCC1`, for which the Ki'' in data set [1] was 1.1 nM; in data set [2], 490 nM; in data set [3], 1400 nM; in data set [4], 8800 nM.
`CC(=O)O[C@@H]1NC(=O)[C@H]1NC(=O)C1(NC(=O)c2ccc(-c3csc(N4CCN(C)CC4)n3)cc2)CCCCC1`: the Ki'' in data set [1] was determined as 1.1 nM; in [2], 940 nM; in data set [3], 3300 nM; in [4] it was 8500 nM.
Take `CN(C)c1nc(-c2ccc(C(=O)NC3(C(=O)N[C@@H]4C(=O)N[C@H]4Oc4ccccc4)CCCCC3)cc2)cs1`: the Ki'' in data set [1] stood at 18 nM; in data set [2], 25000 nM; in data set [3], 89 nM; in data set [4] it was 10000 nM.
On the same counts, the results for `CC(=O)O[C@@H]1NC(=O)[C@H]1NC(=O)C1(NC(=O)c2ccc(-c3csc(NN4CCN(C)CC4)n3)cc2)CCCCC1` are 0.25 nM, 91 nM, 2100 nM and 8800 nM.
The matching figures for `CSc1ccc(C(=O)NC2(C(=O)N[C@@H]3C(=O)N[C@H]3OC(C)=O)CCCCC2)cc1`: 12 nM, 1200 nM, 6400 nM and 3500 nM.
With `CC(=O)O[C@@H]1NC(=O)[C@H]1NC(=O)C1(NC(=O)c2ccc(Cl)cc2)CCCCC1`, the Ki'' in [1] is 92 nM; in data set [2], 2100 nM; in [3] it was 8200 nM; in [4], 3400 nM.
`CC(=O)O[C@@H]1NC(=O)[C@H]1NC(=O)C1(NC(=O)OCc2ccccc2)CCCCC1`: the Ki'' was 57 nM in [1], 4300 nM in data set [2], 6800 nM in [3] and 950 nM in data set [4].
Take `CN1CCN(Nc2nc(-c3ccc(C(=O)NC4(C(=O)N[C@@H]5C(=O)N[C@H]5Oc5ccccc5)CCCCC4)cc3)cs2)CC1`: the Ki'' in data set [1] was found to be 0.26 nM; in [2], 6000 nM; in data set [3], 310 nM; in data set [4], 140000 nM.
`CN1CCN(c2nc(-c3ccc(C(=O)NC4(C(=O)N[C@@H]5C(=O)N[C@@H]5Oc5ccccc5)CCCCC4)cc3)cs2)CC1` yielded a distribution volume (Vd) in data set [5] of 1.6 L/kg. For the same molecule, the clearance in data set [6] is 92 mL/min/kg. Further, the half-life stood at 2 min in data set [7] and 21 min in data set [8]. The molecule also gave an MRT in data set [9] of 17 min.
Consider `CN1CCN(Nc2nc(-c3ccc(C(=O)NC4(C(=O)N[C@@H]5C(=O)N[C@@H]5Oc5ccccc5)CCCCC4)cc3)cs2)CC1`, for which the Ki'' is 8.2 nM in data set [1], 5200 nM in [2], 8.2 nM in [3] and 150000 nM in data set [4].
On to `CC(=O)O[C@@H]1NC(=O)[C@H]1NC(=O)C1(NC(=O)c2ccc(N3CCOCC3)cc2)CCCCC1`, for which the Ki'' in [1] was 5 nM; in data set [2], 980 nM; in [3], 19000 nM; in [4], 14000 nM.
For `CC(=O)O[C@@H]1NC(=O)[C@H]1NC(=O)C1(NC(=O)c2ccc(-c3csc(N(C)C)n3)cc2)CCCCC1`, the Ki'' was found to be 2.6 nM in [1], 1400 nM in [2], 390 nM in [3] and 7700 nM in data set [4].
As to `CC(=O)O[C@@H]1NC(=O)[C@H]1NC(=O)C1(NC(=O)c2ccc(N(C)C)cc2)CCCCC1`, the Ki'' in [1] came to 3.1 nM; in data set [2] it was 530 nM; in data set [3], 2100 nM; in [4], 2800 nM.

The Vd is a proportionality between amount in the body and measured concentration, not a real space. A lower Vd goes with confinement near the circulation. For orientation: clearance means the rate of elimination divided by the concentration. By half-life is commonly meant how long it takes for the measured level to halve. Lower therefore signals fast loss. Broadly, the MRT is the average time that molecules of a dose stay in the body.
